Measured values reported in patent US20250115622A1, “Crystalline Forms Of An MCL-1 Inhibitor” (AMGEN INC., priority 2022, published 2025).

What was measured:
[1] = Moisture sorption (DVS) profile; type: physicochemical
Experimental: Moisture Sorption: Moisture sorption data was collected using a VTI SGA 100 symmetrical vapor sorption analyzer. A sample size of approximately 5-10 mg was used in a platinum pan. Hygroscopicity was evaluated from 5 to 95% RH in increments of 5% RH. Data for adsorption and desorption cycles were collected. Equilibrium criteria were set at 0.001% weight change in 10 minutes with a maximum equilibration time of 180 minutes.

[2] = Thermodynamic stability of solid form; type: physicochemical
Water content by KF = type: physicochemical
Experimental: AMG 397 hydrate Form 7 was prepared by charging ˜4 g of AMG 397 with 1-propanol and then slurrying at 55° C. for 4 days. Isolated solids were subsequently dried under vacuum at 95-105° C. for 7 days. Water content by KF was 0.9% initially and 5.6% after equilibration at ambient conditions. DVS indicates variable water content to 0-12% based on environment.

[3] = Bioavailability compared between crystalline forms; type: in vivo; settings: relative to AMG 397 anhydrous form 4
[4] = Solubility compared between crystalline forms; type: physicochemical; settings: relative to AMG 397 anhydrous form 4

SMILES: CO[C@]1(CN2CCN3CCCC[C@@H]3C2)/C=C/C[C@H](C)[C@@H](C)S(=O)(=O)NC(=O)c2ccc3c(c2)N(C[C@@H]2CC[C@H]21)C[C@@]1(CCCc2cc(Cl)ccc21)CO3 [hydrate form 3]
- moisture sorption weight gain ([1]; by 95% relative humidity): 1.9%
- moisture sorption weight gain ([1]; by 95% relative humidity, listed as crystalline hydrate form 3 of AMG 397): ~1.9%

SMILES: CO[C@]1(CN2CCN3CCCC[C@@H]3C2)/C=C/C[C@H](C)[C@@H](C)S(=O)(=O)NC(=O)c2ccc3c(c2)N(C[C@@H]2CC[C@H]21)C[C@@]1(CCCc2cc(Cl)ccc21)CO3 [anhydrous form 4]
- thermodynamic stability of form [2]: thermodynamically stable form
- moisture sorption weight gain ([1]; by 95% relative humidity): 4.5%
- moisture sorption weight gain ([1]; by 95% relative humidity, listed as crystalline anhydrous form 4 of AMG 397): ~4.5%

SMILES: CO[C@]1(CN2CCN3CCCC[C@@H]3C2)/C=C/C[C@H](C)[C@@H](C)S(=O)(=O)NC(=O)c2ccc3c(c2)N(C[C@@H]2CC[C@H]21)C[C@@]1(CCCc2cc(Cl)ccc21)CO3 [hydrate form 2]
- moisture sorption weight gain ([1]; by 95% relative humidity): 3%
- moisture sorption weight gain ([1]; by 95% relative humidity, listed as crystalline hydrate form 2 of AMG 397): ~3.0%

SMILES: CO[C@]1(CN2CCN3CCCC[C@@H]3C2)/C=C/C[C@H](C)[C@@H](C)S(=O)(=O)NC(=O)c2ccc3c(c2)N(C[C@@H]2CC[C@H]21)C[C@@]1(CCCc2cc(Cl)ccc21)CO3 [hydrate form 7]
- water content by KF (Water content by KF; after equilibration at ambient conditions): 5.6%
- water content by KF (Water content by KF; initially): 0.9%
- variable water content (DVS) ([1]; based on environment): 0-12%
- moisture sorption weight gain ([1]; by 95% relative humidity): 0-12%
- variable water content (DVS) ([1]; moisture sorption profile): 0-12 % wt

SMILES: CO[C@]1(CN2CCN3CCCC[C@@H]3C2)/C=C/C[C@H](C)[C@@H](C)S(=O)(=O)NC(=O)c2ccc3c(c2)N(C[C@@H]2CC[C@H]21)C[C@@]1(CCCc2cc(Cl)ccc21)CO3 [hydrate form 1]
- bioavailability [3]: higher
- solubility [4]: higher
- moisture sorption weight gain ([1]; by 95% relative humidity): 3.3%
- moisture sorption weight gain ([1]; by 95% relative humidity, listed as crystalline hydrate form 1 of AMG 397): ~3.3%

SMILES: CO[C@]1(CN2CCN3CCCC[C@@H]3C2)/C=C/C[C@H](C)[C@@H](C)S(=O)(=O)NC(=O)c2ccc3c(c2)N(C[C@@H]2CC[C@H]21)C[C@@]1(CCCc2cc(Cl)ccc21)CO3 [amorphous AMG 397]
- moisture sorption weight gain ([1]; by 95% relative humidity): ~6.4%
- moisture sorption weight gain ([1]; by 95% relative humidity, listed as amorphous form of AMG 397): 6.4%

SMILES: CO[C@]1(CN2CCN3CCCC[C@@H]3C2)/C=C/C[C@H](C)[C@@H](C)S(=O)(=O)NC(=O)c2ccc3c(c2)N(C[C@@H]2CC[C@H]21)C[C@@]1(CCCc2cc(Cl)ccc21)CO3 [anhydrous form 6]
- moisture sorption weight gain ([1]; 50-95% relative humidity): 10%
- moisture sorption weight gain ([1]; between 0-50% relative humidity): 0.5%
- moisture sorption weight gain ([1]; by 95% relative humidity): 10%
